Measured values as given in article PMC8003485, “Synthesis and Evaluation of Novel α-Aminoamides Containing Benzoheterocyclic Moiety for the Treatment of Pain” (Molecules, 2021).
Where two headings read alike, the source gives them in different places.

What was measured:
ICR (CD−1) male mice [1] = assay: Formalin test (mouse, phase II paw licking); assay type: in vivo
Procedure: The formalin test was carried out using the method described previously. During the formalin test, Institute of Cancer Research (ICR; CD−1) male mice (weight: 22–25 g) were acclimated to the environment for two days before the experiment with food and water available freely. The mice were housed under a 12 h/12 h light/dark cycle. The temperature and humidity of the room were kept at 25 ± 2 °C and 50–60%, respectively. The mice were divided into a vehicle group, a ralfinamide group, and test compound groups randomly, with eight mice in each group. All compounds were dissolved in saline and administered by intraperitoneal injection (n = 8) or intragastric administration by mouth (n = 8) at 10 mg/kg. The vehicle group was given the same volume of saline.
After administration, the mice were placed into polyvinyl chloride (PVC) observation chambers. Thirty minutes later, the mice were injected subcutaneously with 20 μL of 2.7% formalin solution into the surface of their right hind paw and were returned to their PVC chambers immediately to observe their behavior. The cumulative time each mouse licked its right hind paw during phase II (15–30 min) was recorded as its painful time in phase II. The analgesic effects of the compounds were presented as the mean ± standard deviation. The data were analyzed by SPSS using one-way analysis of variance followed by Dunnett’s test. The analgesic activity of the test compounds was calculated according to the following formula. %Analgesia=Average Time (Vehicle)−Average Time (Drug)/Average Time (Vehicle)× 100%

ICR (CD-1) male mice = assay: Acetic acid-induced writhing test; assay type: in vivo; conditions: 10 mg/kg, i.p.; writhes in 20 min; mean ± SD, n = 6
Procedure: The writhing test was performed according to a previously reported method. The ICR (CD-1) male mice (weight: 22–25 g) were treated as for the formalin test in the same environment. The mice were divided into a vehicle group, a ralfinamide group, and test compound groups randomly, with six mice in each group. All compounds were dissolved in saline and administered by intraperitoneal injection at 10 mg/kg. The vehicle group was given the same volume of saline. After administration, the mice were placed into PVC chambers. Thirty minutes later, the mice were injected with 1% acetic acid solution at 10 mL/kg by intraperitoneal injection and placed into the observation chambers immediately to record the number of writhes each mouse had in 20 min. The results were presented as the mean ± standard deviation. The analytical method was the same as that for the formalin test, and the analgesic activity of each compound was calculated by the following formula. %Analgesia=Average Number (Vehicle)−Average Number (Drug)/Average Number (Vehicle)× 100%

hNav1.7 = molecular target: T1, hNav1.7 (Homo sapiens, UniProt Q15858); assay: Whole-cell patch clamp assay for hNav1.7 inhibition (HEK293 cells stably expressing hNav1.7); assay type: cell-based; conditions: for inhibition at 10 µM: HEK293, TTX-sensitive Nav1.7 current, mean ± SD
T1 construct: expressed in transfected cells; host or cells: HEK293
Procedure: The compounds were tested as hNav1.7 peak current inhibitors at room temperature using human embryonic kidney 293 cells stably expressing hNav1.7. The holding voltage was depolarized to 0 mV from −120 mV for 20 ms and restored to −75 mV for 8 s. After that, the membrane potential was recovered to −120 mV for 20 ms and then depolarized to 0 mV for another 20 ms. Finally, the voltage was renewed to −120 mV for 30 ms. The potential was applied every 20 s. The compounds were administered when the voltage of hNav1.7 recorded by the whole-cell patch clamp was stable. Every compound concentration was tested for 5 min, and all compounds were tested at several concentrations and with multiple cells.

hNav1.8 = molecular target: T2, hNav1.8 (Homo sapiens, UniProt Q9Y5Y9); assay: Whole-cell patch clamp assay for hNav1.8 inhibition (CHO cells stably expressing hNav1.8); assay type: cell-based
T2 construct: expressed in transfected cells; host or cells: CHO
Procedure: The whole-cell patch clamp assay assessing the hNav1.8 current was carried out at room temperature with Chinese hamster ovary cells stably expressing hNav1.8. The holding voltage of the membrane was transferred to 0 mV from −120 mV for 50 ms and then restored to −50 mV for 8 s. After that, the membrane potential was renewed to −120 mV for 20 ms, which was followed by a depolarization to 0 mV for 50 ms. Finally, the potential was recovered to the holding voltage of −120 mV for 30 ms. This process was performed every 20 s. The compounds were administered when the voltage of hNav1.8 was stable. Every compound concentration was tested for 5 min, and all compounds were tested at several concentrations and with multiple cells.

hNav1.5 = molecular target: T3, hNav1.5 (Homo sapiens, UniProt Q14524); assay: Assay for hNav1.5 inhibition (HEK293 cells stably expressing hNav1.5); assay type: cell-based
T3 construct: expressed in transfected cells; host or cells: HEK293
Procedure: The inhibition of the compounds to hNav1.5 peak current was performed at room temperature using HEK293 cells that could express hNav1.5 stably. The holding voltage of the membrane was transferred to 0 mV from −120 mV for 50 ms and then restored to −50 mV for 8 s. After that, the membrane potential was renewed to −120 mV for 20 ms, followed by a depolarization to 0 mV for 50 ms. At last, the potential was recovered to the holding voltage −120 mV for 30 ms. This progress was performed every 20 s. The compounds were administrated when the voltage of hNav1.5 was stable. Every concentration was tested for 5 min and all compounds were tested at several concentrations and with multiple cells.

mouse [2] = assay: Mouse hotplate assay; assay type: in vivo; conditions: even at a high dose of 100 mg/kg; data not shown
mouse [3] = assay: Mouse tail flick assay; assay type: in vivo; conditions: even at a high dose of 100 mg/kg; data not shown
ICR (CD−1) male mice [4] = assay: Formalin test (mouse, phase II paw licking); assay type: in vivo; remark: listed apart in the source

T1 sequence (Q15858 whole entry): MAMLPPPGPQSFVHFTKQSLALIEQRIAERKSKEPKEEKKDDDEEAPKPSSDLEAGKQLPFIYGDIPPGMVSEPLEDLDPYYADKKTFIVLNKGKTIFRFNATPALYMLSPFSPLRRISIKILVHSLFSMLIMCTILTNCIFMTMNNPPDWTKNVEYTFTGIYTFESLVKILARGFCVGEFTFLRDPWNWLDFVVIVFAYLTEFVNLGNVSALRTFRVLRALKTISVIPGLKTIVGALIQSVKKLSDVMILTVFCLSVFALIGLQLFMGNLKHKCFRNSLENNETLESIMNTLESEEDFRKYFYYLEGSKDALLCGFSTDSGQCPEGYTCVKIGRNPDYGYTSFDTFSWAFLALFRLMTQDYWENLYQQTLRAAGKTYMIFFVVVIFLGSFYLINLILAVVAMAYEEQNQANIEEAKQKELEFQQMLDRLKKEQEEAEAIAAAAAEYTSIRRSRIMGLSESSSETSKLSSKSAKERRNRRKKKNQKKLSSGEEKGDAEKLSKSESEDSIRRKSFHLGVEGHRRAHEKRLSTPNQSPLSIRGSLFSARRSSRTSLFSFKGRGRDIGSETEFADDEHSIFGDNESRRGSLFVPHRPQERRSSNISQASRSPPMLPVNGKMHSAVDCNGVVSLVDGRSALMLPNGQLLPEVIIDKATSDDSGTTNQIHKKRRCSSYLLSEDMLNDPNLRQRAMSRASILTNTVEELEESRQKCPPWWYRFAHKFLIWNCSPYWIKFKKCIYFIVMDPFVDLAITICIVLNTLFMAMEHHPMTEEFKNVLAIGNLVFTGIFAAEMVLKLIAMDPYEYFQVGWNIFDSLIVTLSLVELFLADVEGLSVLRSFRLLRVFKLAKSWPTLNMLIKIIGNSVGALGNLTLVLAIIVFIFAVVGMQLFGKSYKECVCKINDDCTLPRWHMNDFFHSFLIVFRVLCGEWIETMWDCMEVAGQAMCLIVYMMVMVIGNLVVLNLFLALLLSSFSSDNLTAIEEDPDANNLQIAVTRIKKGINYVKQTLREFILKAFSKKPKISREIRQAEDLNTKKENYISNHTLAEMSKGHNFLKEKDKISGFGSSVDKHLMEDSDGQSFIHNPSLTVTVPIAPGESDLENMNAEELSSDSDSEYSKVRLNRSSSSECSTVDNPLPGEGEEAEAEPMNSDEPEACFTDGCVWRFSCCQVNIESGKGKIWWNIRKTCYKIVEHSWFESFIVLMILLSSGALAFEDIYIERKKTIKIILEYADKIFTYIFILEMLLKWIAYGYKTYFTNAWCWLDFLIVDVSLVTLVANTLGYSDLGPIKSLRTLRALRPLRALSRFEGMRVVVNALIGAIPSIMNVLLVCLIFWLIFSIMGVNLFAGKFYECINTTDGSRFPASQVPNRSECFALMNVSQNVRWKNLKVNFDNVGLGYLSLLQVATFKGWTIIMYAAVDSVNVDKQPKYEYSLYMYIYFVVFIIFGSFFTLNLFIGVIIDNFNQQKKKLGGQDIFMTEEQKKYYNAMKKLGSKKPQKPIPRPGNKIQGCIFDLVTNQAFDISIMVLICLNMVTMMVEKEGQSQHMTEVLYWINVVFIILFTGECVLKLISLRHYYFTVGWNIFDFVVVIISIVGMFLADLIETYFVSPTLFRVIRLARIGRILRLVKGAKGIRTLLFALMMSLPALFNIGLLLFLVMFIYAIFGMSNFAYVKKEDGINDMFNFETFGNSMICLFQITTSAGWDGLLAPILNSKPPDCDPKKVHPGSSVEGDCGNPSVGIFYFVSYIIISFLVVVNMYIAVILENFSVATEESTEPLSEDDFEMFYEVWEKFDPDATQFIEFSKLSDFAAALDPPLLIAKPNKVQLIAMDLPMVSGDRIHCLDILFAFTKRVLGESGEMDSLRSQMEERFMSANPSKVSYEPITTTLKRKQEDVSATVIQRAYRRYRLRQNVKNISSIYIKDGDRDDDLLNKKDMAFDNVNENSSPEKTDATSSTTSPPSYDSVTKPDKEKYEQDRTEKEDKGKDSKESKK
T3 sequence (Q14524 whole entry): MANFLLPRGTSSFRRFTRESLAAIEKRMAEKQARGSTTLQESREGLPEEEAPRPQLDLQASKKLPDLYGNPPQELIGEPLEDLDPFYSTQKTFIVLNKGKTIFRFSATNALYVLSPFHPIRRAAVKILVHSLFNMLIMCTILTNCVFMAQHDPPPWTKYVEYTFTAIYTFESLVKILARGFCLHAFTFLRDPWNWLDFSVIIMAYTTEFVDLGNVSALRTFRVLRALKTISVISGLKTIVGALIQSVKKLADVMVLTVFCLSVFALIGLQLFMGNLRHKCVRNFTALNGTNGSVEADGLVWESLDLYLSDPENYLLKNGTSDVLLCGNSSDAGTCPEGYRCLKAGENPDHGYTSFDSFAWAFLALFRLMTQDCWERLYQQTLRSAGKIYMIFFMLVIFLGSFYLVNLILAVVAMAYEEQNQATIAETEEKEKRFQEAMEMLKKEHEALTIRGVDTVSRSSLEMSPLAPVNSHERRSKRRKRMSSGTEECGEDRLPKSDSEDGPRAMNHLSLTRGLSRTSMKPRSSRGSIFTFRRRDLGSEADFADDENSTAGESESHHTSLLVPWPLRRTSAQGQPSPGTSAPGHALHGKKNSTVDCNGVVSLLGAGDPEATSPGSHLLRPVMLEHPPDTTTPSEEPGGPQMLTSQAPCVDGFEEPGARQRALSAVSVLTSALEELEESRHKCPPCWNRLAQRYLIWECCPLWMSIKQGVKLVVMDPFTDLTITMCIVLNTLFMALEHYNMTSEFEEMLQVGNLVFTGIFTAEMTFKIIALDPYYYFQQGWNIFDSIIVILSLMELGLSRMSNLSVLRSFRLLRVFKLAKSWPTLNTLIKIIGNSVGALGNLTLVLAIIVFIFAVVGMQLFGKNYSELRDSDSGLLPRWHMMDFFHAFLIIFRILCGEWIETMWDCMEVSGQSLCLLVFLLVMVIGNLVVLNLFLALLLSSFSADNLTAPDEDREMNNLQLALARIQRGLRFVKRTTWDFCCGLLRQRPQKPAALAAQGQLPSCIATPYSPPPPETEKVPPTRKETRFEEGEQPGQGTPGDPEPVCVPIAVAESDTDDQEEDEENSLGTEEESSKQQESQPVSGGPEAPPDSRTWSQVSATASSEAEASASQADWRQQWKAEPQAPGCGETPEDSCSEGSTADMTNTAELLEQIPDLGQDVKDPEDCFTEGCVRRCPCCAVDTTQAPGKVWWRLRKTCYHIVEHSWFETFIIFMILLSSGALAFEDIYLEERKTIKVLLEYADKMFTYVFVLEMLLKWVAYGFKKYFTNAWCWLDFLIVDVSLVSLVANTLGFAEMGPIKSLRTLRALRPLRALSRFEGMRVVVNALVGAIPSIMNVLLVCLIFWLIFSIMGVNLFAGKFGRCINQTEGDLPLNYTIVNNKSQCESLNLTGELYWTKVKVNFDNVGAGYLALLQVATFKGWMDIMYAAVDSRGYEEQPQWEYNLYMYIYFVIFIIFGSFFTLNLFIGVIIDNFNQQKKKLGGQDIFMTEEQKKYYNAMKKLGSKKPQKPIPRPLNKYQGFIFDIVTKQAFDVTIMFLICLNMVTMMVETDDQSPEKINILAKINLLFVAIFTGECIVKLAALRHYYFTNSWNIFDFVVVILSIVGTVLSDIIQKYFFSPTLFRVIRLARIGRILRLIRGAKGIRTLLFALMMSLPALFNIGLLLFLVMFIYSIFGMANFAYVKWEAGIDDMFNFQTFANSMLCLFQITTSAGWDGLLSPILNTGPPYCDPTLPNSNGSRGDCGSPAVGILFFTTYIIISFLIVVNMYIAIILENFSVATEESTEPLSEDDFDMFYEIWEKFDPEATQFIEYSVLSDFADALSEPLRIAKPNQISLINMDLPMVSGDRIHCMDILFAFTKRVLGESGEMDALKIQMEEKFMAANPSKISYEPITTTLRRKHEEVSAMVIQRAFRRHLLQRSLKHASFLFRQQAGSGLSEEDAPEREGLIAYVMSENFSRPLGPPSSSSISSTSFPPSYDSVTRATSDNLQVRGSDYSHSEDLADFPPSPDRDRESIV

inhibition at 10 µM (hNav1.7; read-out: Inhibitory Effect against Nav1.7, Activated State (TP−1)): 15.6 ± 0.8%
inhibition at 10 µM (hNav1.7; read-out: Inhibitory Effect against Nav1.7, Inactivated State (TP−2)): 61.8 ± 0.2%
IC50 (hNav1.7; Table 4, TTX-sensitive inactivated Nav1.7 current): 2.3 ± 0.2 µM
Nav1.7 IC50 compared to ralfinamide (in words) (hNav1.7; ratio of IC50 values, Table 4): three times lower
IC50 (hNav1.8; Nav1.8 inactivated state Na+ currents): 4.3 ± 0.5 µM
Potency against Nav1.8 compared to ralfinamide (in words) (hNav1.8; ratio of IC50 values, Table 5): nearly nine-fold more potent
SMILES: C[C@H](NCc1cccc(COc2cccc3occc23)c1)C(N)=O [Compound 6a, (S)-2-((3-((Benzofuran-4-yloxy)methyl)benzyl)amino)propanamide]
% Analgesia (formalin test) (ICR (CD−1) male mice [1]; 10 mg/kg, i.p., phase II (15–30 min), mean ± SD, n = 8): 84.0 ± 16.2 ^☆ * %
inhibition in vivo at 10 mg/kg (ICR (CD−1) male mice [1]; Mus musculus, ip, 10 mg/kg, i.p., phase II (15–30 min), mean ± SD, n = 8, read-out: % Analgesia (formalin test)): 84%
Percentage of analgesia relative to ralfinamide (times higher) (ICR (CD−1) male mice [1]; formalin test, 10 mg/kg): 1.5–2 times
Analgesic activity after intragastric administration by mouth (in words) (ICR (CD−1) male mice [1]; formalin test, oral administration assay, compared to ralfinamide): higher analgesic activity than ralfinamide
% Analgesia (acetic acid-induced writhing test) (ICR (CD-1) male mice): 49.7 ± 11.3 ^☆ %
inhibition at 10 µM (hNav1.5; HEK293, 10 µM, read-out: Inhibitory Effect to Nav1.5): 66.8 ± 1.5%
Inhibitory activity against Nav1.5 (in words) (hNav1.5; similarly to ralfinamide, low selectivity over the cardiac sodium channel): moderate inhibitory activity
Analgesic effect in mouse hotplate assay (in words) (mouse [2]): no analgesic effect
Analgesic effect in tail flick assay (in words) (mouse [3]): no analgesic effect
Analgesic response (formalin test) (ICR (CD−1) male mice [4]; 5 mg/kg, intraperitoneal injection, dose-effect relationship assay): 69.6%
Dose dependence of analgesic activity (in words) (ICR (CD−1) male mice [4]; formalin test, 2.5 mg/kg, 5 mg/kg and 10 mg/kg by intraperitoneal injection): dose-dependent activity
